US20080125432A1 (Devgen NV, priority 2004, published 2008)

Molecular target: T1, hERG potassium channel (Homo sapiens, UniProt Q12809)
T1 construct: host or cells: HEK 293 T-REx
Experiment: Whole cell patch clamp, HEK 293 T-REx HERG cells
Type: cell-based
Conditions: estimated by Hill fit with hill=1, ymax=100; tested at 10 μM, n=2; read-out: IC50 (μM) hERG
Excerpt: For this experiment HEK 293 T-REx HERG cells (#23) were used. This cell line made by IonGate is characterized by the inducible expression of the hERG gene. The T-REx™ System (Invitrogen, Karlsruhe, Germany) is a tetracycline-regulated mammalian expression system that uses regulatory elements from the E. coli Tn10-encoded tetracycline (Tet) resistance operon. In the absence of Tet the expression is repressed. Tetracycline regulation in the T-REx™ System is based on the binding of tetracycline to the Tet repressor and derepression of the promoter controlling expression of the hERG gene. Addition of Tet to the cell culture media results in expression of the hERG potassium channel.
To construct the HEK 293 T-REx HERG cell line, the hERG gene was ligated into the inducible expression vector pcDNA4/TO (→pc4TO-HERG) and transfected into HEK 293 T-REx cells (this cell line stably expresses the Tet repressor and was purchased at Invitrogen). Stable cell clones were isolated after selection with Blasticidin (5 μg/ml) and Zeocin™ (300 μg/ml). The clones were electrophysiological characterized after induction with 1 μg/ml Tet.
Experiments were performed using the patch clamp set-up. Technical equipment needed for manipulation of the cells was placed on a vibration-isolated table and shielded with a Faraday cage to minimize electrical noise. The amplifier and control system were placed in a rack outside the Faraday cage. The system consisted of an EPC9 or EPC10 patch clamp amplifier (HEKA, Lambrecht, Germany), and the perfusion system DADVC8 (ALA Scientific, New York, USA) controlled by the Pulse software package (HEKA, Lambrecht, Germany) installed on a personal computer.
The cells used for this experiment were kept in continuous culture under standard conditions (37° C., air supplemented with 5% CO2). The HEK 293 T-REx HERG cells were kept in minimal essential medium (MEM) supplemented with 100 U/ml Penicillin, 100 μg/ml Streptomycin, 10% fetal calf serum (FCS), 1% non-essential amino acids (NEAA), 2.5 μg/ml amphotericin, 300 μg/ml Zeocin™ and 5 μg/ml Blasticidin. Cells were passed every 3-4 days after detachment using a Trypsin solution. The quality of the cultured cells was guaranteed by vitality and contamination tests. The culture of the cells was performed as described in protocol D described above.
At least 18 hours prior to electrophysiological experiments the cells were detached by application of iced PBS (phosphate buffered saline) or Trypsin and replated on cover slips. 1 μg/ml Tet was added to the cells to induce hERG expression.
Activity of the cardiac hERG channel was investigated using the patch clamp technique in its whole cell mode. This means that the current needed for clamping the whole cell expressing the K^+-channel protein to a specific potential was measured. The pipettes used for patch clamping were made of borosilicate glass. Measurements were performed at room temperature (20-25° C.). In each experiment (i.e. each cell) only one concentration of the compound was investigated no cumulative dosages were performed. Each cell acted as its own control. […]
After the whole cell configuration was established a series of pulses was applied to check for hERG expression and to optimize amplifier settings. However, only the following measurements were used for data analysis: 15 test pulses (FIG. 4a and Table 6a) were applied at 0.1 Hz (series 1) under constant superfusion with bath solution. The protocol was initiated by a leak test at −40 mV (50 ms). […] The maximum hERG tail current amplitude was measured at −40 mV (tail current test, 1.5 sec.). Only cells generating tail current amplitudes between 300 pA and 10 nA were used for the experimental procedure.
After successful characterization of the current another 10 test pulses were applied at 0.1 Hz while the cell was superfused with bath solution (series 2). […]

T1 sequence (Q12809 whole entry): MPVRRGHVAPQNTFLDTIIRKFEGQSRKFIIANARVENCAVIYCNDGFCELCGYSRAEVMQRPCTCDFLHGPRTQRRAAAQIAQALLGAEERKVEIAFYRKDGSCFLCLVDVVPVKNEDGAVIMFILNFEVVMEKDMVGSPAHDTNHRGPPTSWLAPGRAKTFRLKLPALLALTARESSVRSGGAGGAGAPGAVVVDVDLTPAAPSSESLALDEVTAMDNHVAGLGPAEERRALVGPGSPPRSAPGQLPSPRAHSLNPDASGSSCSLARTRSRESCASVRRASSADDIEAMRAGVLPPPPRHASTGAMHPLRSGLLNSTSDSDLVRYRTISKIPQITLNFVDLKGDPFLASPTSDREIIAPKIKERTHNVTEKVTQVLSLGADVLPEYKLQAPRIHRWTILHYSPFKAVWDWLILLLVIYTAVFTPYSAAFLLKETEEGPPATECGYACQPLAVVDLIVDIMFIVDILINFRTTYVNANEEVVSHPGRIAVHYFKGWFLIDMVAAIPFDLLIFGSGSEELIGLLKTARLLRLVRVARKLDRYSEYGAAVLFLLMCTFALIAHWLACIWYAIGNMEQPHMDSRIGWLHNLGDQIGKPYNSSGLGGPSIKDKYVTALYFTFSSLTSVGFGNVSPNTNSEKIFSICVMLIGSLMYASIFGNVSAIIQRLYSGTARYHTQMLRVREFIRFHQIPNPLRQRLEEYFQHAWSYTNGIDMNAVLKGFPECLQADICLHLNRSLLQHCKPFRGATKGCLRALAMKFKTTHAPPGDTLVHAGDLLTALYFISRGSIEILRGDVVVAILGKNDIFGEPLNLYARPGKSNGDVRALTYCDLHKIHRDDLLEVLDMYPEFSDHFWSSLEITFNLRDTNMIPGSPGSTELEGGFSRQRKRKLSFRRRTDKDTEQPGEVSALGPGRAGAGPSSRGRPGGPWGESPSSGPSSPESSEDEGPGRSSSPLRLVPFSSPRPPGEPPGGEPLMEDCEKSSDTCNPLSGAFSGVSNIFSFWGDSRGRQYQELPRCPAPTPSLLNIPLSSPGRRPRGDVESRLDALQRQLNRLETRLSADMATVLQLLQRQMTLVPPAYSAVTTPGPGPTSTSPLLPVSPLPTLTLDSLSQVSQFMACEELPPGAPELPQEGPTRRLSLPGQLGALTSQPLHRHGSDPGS

COc1ccccc1Nc1nc(C)c(C(=O)N[C@@H](C)c2ccc3ccccc3c2)s1 [Compound 55, 2-(2-methoxy-phenylamino)-4-methyl-thiazole-5-carboxylic acid (S)-1-(2-naphtalen-2-yl-ethyl)-amide]
IC50: 10.2 µM
